Assays:
[1] = target: T1, recombinant GBA1 (rGBA1, Cerezyme) (Homo sapiens, UniProt P04062, R534H); test: Degradation of GlcChol by rGBA1; format: biochemical
T1 construct: purchased Genzyme (Genzyme Nederland, Naarden, The Netherlands)
T1 sequence (P04062 40-536 R534H): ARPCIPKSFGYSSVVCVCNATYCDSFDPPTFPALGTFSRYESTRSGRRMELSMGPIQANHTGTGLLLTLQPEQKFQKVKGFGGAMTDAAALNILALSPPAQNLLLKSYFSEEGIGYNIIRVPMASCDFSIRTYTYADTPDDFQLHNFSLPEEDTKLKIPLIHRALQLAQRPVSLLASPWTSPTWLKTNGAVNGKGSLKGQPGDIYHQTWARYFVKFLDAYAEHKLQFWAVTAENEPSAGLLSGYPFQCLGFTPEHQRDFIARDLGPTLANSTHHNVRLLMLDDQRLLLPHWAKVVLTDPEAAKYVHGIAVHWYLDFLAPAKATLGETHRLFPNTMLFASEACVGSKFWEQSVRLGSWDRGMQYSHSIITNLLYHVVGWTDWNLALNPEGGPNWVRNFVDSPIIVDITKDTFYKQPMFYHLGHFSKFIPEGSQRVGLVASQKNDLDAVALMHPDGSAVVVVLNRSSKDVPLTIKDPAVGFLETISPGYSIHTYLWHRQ
Experimental: FIG. 1D: Linearity of GlcChol quantification and its complete digestion with rGBAl. (5 IU) for 60 min at 37 C.
The physiological significance of glucosylation of cholesterol is hypothetically great since it renders the molecule far more water soluble. To establish whether GlcChol physiologically occurs in mammals, firstly a LC-MS/MS procedure was developed for its quantitative detection. For this purpose, a ^13C-isotope labeled cholesterolglucoside was synthesized to be used as internal standard in sensitive quantitative detection of GlcChol by LC-MS/MS. The use of the isotope labeled compound as internal standard avoids the need for corrections for extraction efficiency, chromatographic behavior and ionization efficiency, during quantification GlcChol. […] The limit of detection (LOD) was 0.5 pmol/mL plasma, with a signal to noise ratio of 3 and a limit of quantitation (LOQ) of 0.9 pmol/mL plasma with a signal to noise ratio of 10.
Both GBA and GBA2, but not GBA3, are able to degrade by hydrolysis as well as synthesize GlcChol at conditions optimal for degradation of 4MU-8-glucoside (FIG. 1D; supplemental Table 1). […] This ability of the several GBA's to hydrolyze as well as synthesize GlcChol was studied in vitro using 25-NBD-cholesterol as acceptor and detection of 25-NBD-glucoside formation by TLC and fluorescence scanning. […]

[2] = target: T2, GBA2 (Mus musculus, UniProt Q69ZF3); test: Degradation of GlcChol by GBA2; format: biochemical, murine; conditions: GBA2, input 18 nmol 4MU-β-Glc hydrolysis per ml/h
T2 construct: Myc-His (C); expressed in transfected cells; host or cells: COS-7 cells, used as homogenate/lysate
T2 sequence (Q69ZF3 1-918): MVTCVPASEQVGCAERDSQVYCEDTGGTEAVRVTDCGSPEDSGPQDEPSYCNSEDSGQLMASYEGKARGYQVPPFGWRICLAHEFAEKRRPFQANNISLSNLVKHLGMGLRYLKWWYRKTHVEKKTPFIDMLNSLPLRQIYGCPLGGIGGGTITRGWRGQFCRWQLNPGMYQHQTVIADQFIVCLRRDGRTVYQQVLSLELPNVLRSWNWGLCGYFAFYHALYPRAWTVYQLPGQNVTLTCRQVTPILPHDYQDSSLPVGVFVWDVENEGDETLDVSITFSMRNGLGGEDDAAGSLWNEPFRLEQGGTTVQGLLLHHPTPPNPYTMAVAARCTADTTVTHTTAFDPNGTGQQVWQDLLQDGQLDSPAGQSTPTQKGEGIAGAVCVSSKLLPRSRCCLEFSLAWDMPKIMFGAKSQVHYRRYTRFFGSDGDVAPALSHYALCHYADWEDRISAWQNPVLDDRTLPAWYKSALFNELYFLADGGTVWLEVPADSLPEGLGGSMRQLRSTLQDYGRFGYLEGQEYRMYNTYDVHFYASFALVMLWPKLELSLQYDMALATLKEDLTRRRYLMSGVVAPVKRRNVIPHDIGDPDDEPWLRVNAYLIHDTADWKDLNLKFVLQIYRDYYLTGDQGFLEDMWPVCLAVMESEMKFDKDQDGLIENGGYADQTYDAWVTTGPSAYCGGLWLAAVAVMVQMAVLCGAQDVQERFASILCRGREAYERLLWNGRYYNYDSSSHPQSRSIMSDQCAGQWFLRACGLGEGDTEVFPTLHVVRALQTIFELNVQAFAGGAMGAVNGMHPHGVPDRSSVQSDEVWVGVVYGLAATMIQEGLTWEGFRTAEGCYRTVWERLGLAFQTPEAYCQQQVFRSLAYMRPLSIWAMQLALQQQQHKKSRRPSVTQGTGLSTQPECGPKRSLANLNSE
Text: Both GBA and GBA2, but not GBA3, are able to degrade by hydrolysis as well as synthesize GlcChol at conditions optimal for degradation of 4MU-8-glucoside (FIG. 1D; supplemental Table 1). […] This ability of the several GBA's to hydrolyze as well as synthesize GlcChol was studied in vitro using 25-NBD-cholesterol as acceptor and detection of 25-NBD-glucoside formation by TLC and fluorescence scanning. As source of enzyme rGBA1 was used and GBA2 and GBA3 were individually overexpressed in COST-cells. Overexpression of enzymes was checked by measuring enzymatic activity with appropriate assays and visualization of enzymes with the broad-specificity β-glucopyranosyl cyclophellitolaziridine-type ABP (38). rGBA1 and lysates of GBA2 and GBA3 overexpressing cells were incubated with natural glucosylceramide (C16:0-GloCer or C18:1-GlcCer) as donors and 25-NBD-cholesterol as acceptor. […]
Homogenates of COS-7 cells overexpressing GBA2 and/or GCS, were analyzed for enzymatic activity of GBA2 using artificial 4MU-Glc substrate as earlier described (38). […] The reaction was terminated by addition of 1.25 mL stop-buffer (0.3 M Glycine/NaOH, pH 10.6) and the released 4MU was measured with a LS55 Fluorescence Spectrometer (Perkin-Elmer, Waltham, Mass., USA).

Question: What does the source list for `CC(C)CCC[C@@H](C)[C@H]1CC[C@H]2[C@@H]3CC=C4C[C@@H](O[C@@H]5O[C@H](CO)[C@@H](O)[C@H](O)[C@H]5O)CC[C@]4(C)[C@H]3CC[C@]12C` [GlcChol, 1-O-cholesteryl-β-D-glucopyranoside]?
Answer: substrate for recombinant GBA1 ([1]; even at sub-optimal conditions (absence of Triton-X-100 and sodium taurocholate)): excellent substrate; Percentage digestion GlcChol after 1 h (10 nmole) ([1]; rGBA1, input 15 nmol 4MU-β-Glc hydrolysis per ml/h): 95%; Percentage digestion GlcChol after 1 h (10 nmole) [2]: 83%
